Reference: patent US10144938B2, “Methods of processing aromatic compounds” (WISCONSIN ALUMNI RESEARCH FOUNDATION, priority 2015, dated 2018)

Assays:
[1] = test system: R. sphaeroides 2.4.1; experiment: Glucose and xylose consumption in synthetic hydrolysate with individual aromatics added; assay type: cell-based, Rhodobacter sphaeroides; conditions: individual aromatics at concentrations present in SynH2, diluted to 20% strength, FIG. 9
From the text: For comparison, glucose and xylose utilization in 20% SynH2^− (no aromatics), as well as in 20% ACSH and 20% AHPCSH are also included.

[2] = test system: bacterial or yeast ethanologens; conditions: literature reports; cited from earlier work

Row | SMILES | Effect on glucose utilization [1] | Inhibitory to bacterial or yeast ethanologens [2]
1 | CC(=O)c1ccc(O)cc1 [4-Hydroxyacetophenone] | inhibited glucose utilization | inhibitory
2 | O=Cc1ccc(O)cc1 [4-Hydroxybenzaldehyde] | inhibited glucose utilization | inhibitory
3 | COc1cc(C(C)=O)ccc1O [Acetovanillone] |  | inhibitory
4 | O=C(O)c1ccccc1 [Benzoate] |  | inhibitory
5 | COc1cc(C=O)ccc1O [Vanillin] |  | inhibitory
6 | O=C(O)/C=C/c1ccc(O)cc1 [p-Coumaric acid] | inhibited glucose utilization | inhibitory
